Data on 26 molecules can be found in PubChem BioAssay AID179 (DTP/NCI, 2004).

The test system of this test is CEM cells HIV-1 protection, formazan growth assay. The test is described as follows: NCI AIDS Antiviral Assay. Conditions: for IC50: measured here: growth of uninfected CEM cells. An outline of the steps:
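Screen of anti-HIV-1 activity in human CEM cells using a formazan-based growth measurement at five drug concentrations. Hits with 50% or greater protection were repeated, and confirmation required reproducible complete protection.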

The structures appear in SMILES notation. Values joined by “and” are separate entries in the source; they are usually repeats but may differ in a detail not shown here. Equal entries are not always repeated. Active and inactive are the calls of the source.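 How the source made its calls: active means compounds giving half or more protection of infected cells from virus-caused growth loss, again on retest; inactive means the rest.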

In the case of `c1ccc([P+](Cc2cccc(C[P+](c3ccccc3)(c3ccccc3)c3ccccc3)c2)(c2ccccc2)c2ccccc2)cc1`, the EC50 is > 200 µM and the IC50 worked out at 85.1 µM.

Take `CC1(C)OP(=O)(O)C=C1Sc1ccc([N+](=O)[O-])cc1[N+](=O)[O-]`: the EC50 was > 200 µM and the 50% inhibitory concentration (IC50) is > 200 µM.

As to `COC(=O)C(/C(=N/N)C(=O)Nc1ccc(C)c(C)c1)c1nc2ccc(Cl)cc2[nH]c1=O` (stereo unspecified), the EC50 was > 214 µM and the IC50 stood at 135 µM.

Consider `O=[N+]([O-])c1ccc2c([N+](=O)[O-])ccc3c2c1CC3`, for which the EC50 is > 200 µM and the IC50 amounted to 21.9 µM.

With `O=C(O)C1C2CC(C1C(=O)O)C1C2N1S(=O)(=O)c1ccccc1` (stereo unspecified), the EC50 was > 741 µM and the IC50 was > 741 µM.

`COc1c2occc2c(OC)c2c(=O)c(S(=O)(=O)NC(=O)Nc3ccc(Cl)cc3)coc12`: the EC50 is > 200 µM and the IC50 was 97.7 µM.

Regarding `CCOC(=O)/C(N=Nc1ccc(-n2c(C)nc3ccccc3c2=O)cc1)=C(/C)O`, the EC50 is > 200 µM and the half-maximal inhibitory concentration (IC50) was found to be 151 µM.

For the molecule `CN(/N=C/C=N/N(C)C1=NCCCN1)C1=NCCCN1`, the EC50 is 110 µM and the IC50 is > 200 µM.

`O=C(CC(=O)C1=CNc2ccccc2S1)C(=O)Nc1ccc(Cl)cc1`: the EC50 was > 126 µM and the IC50 was > 126 µM.

Take `C#[N+]CCOP(=O)(OCC1OC(n2cc(C)c(=O)[nH]c2=O)CC1N=[N+]=[N-])O[C@H]1CC[C@@]2(C)C(=CC[C@H]3[C@@H]4CC[C@H](C(C)CCCC(C)C)[C@@]4(C)CC[C@@H]32)C1` (stereo partly specified): the EC50 was 4.17 µM and 10 µM; the half-maximal inhibitory concentration (IC50) is > 200 µM.

With `O=S(=O)(F)c1ccc(C[P+](c2ccccc2)(c2ccccc2)c2ccccc2)cc1Cl`, the EC50 was > 200 µM and the IC50 worked out at 97.7 µM.

In the case of `COC(=O)[C@@H](NC(=O)N(Cc1ccccc1)C[C@H](CC(C)C)NC(=O)[C@@H](NC(=O)OC(C)(C)C)C(C)C)C(C)C`, the EC50 is > 200 µM and the IC50 is > 100 µM.

Turning to `Cc1nn(C)cc1P(=S)(c1ccccc1)c1ccccc1`, the EC50 was > 16.6 µM and the IC50 is > 16.6 µM.

As for `N#C/C(=C1\SC(=O)CN1c1ccc(Cl)cc1)c1nc2ccccc2o1`, the EC50 was > 200 µM and the IC50 is 34.7 µM.

`CCOC(=O)C[C@@H]1C2(C=C[C@@]13CO3)OCC(C)(C)CO2`: the EC50 is > 200 µM and the half-inhibitory concentration (IC50) amounted to 129 µM.

Take `Cc1ccc(C)c(NC(=O)C(=O)CC(=O)c2cccc3ccccc23)c1`: the EC50 is > 105 µM and the IC50 was > 105 µM.

On to `COc1ccc([N-]/C(=N\n2c(=O)c(C)nn(C)c2=S)N(c2ccc(OC)cc2)c2nn3c(=O)c(C)n[n+](C)c3s2)cc1`, for which the outcome was inactive.

On to `c1ccc(C2=NC3(CCCCC3)N=C2c2ccccc2)cc1`, for which the EC50 is > 200 µM and the IC50 is 135 µM.

Take `CC(CCC#CC(=O)O)OC1CCCCO1` (stereo unspecified): the EC50 is > 200 µM and the IC50 is > 200 µM.

As to `CC1NCCc2c1[nH]c1cc(O)ccc21` (stereo unspecified), the EC50 was > 1050 µM and the IC50 came to 158 µM.

In the case of `O=C(NCCCCCCNC(=O)c1cnc2ccccc2n1)c1cnc2ccccc2n1`, the EC50 was > 83.2 µM and the IC50 was > 83.2 µM.

Take `COc1ccc(/C=C/c2ccnc3ccccc23)cc1OC`: the EC50 was 0.0631 µM and the IC50 worked out at 50.1 µM.

Turning to `Cc1ccc(S(=O)(=O)N/N=C(\c2nc3ccc(Cl)cc3[nH]c2=O)C(O)c2cccc([N+](=O)[O-])c2)cc1` (stereo unspecified), the EC50 is > 468 µM and the IC50 came out at 162 µM.

With `Cc1ccc(CC2(C(=O)O)Cc3ccc(C)cc3C2)cc1` (stereo unspecified), the EC50 was > 200 µM and the IC50 was 57.5 µM.

Regarding `COc1cccc2c1C(=O)c1ccc3cc(CCl)cc(O)c3c1C2=O`, the EC50 is > 200 µM and the IC50 came to 0.468 µM.

Consider `COc1cc(/C=C/c2ccnc3ccccc23)ccc1N(C)C`, for which the EC50 is > 200 µM and the IC50 turned out to be 2.19 µM.
